According to the supplement of paper PMC10307832:

Assays:
Assay in all cases: relative viability (nuclei count vs DMSO), 5 days (fraction); higher = more cells survive
NCI-H596 = tested on: NCI-H596
Procedure, shortened: (§1)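 Lung cancer cell lines were seeded in 1536-well plates and dosed by pin tool the next day, with either a single drug or a fixed anchor-drug dose combined with five library-drug doses (not always all listed) spaced in √10 steps. Five days later, one step fixed the cells and stained their nuclei (final 0.05% Triton X-100, 1% formaldehyde, 1 ug/ml Hoechst), and nuclei were counted on 4× images. Relative viability is the nuclei count in treated wells divided by the count in vehicle wells, and each value is the median of duplicate plates.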

UMC-11 = tested on: UMC-11
Procedure, shortened: as §1

NCI-H1993 = tested on: NCI-H1993
Procedure, shortened: as §1

NCI-H23 = tested on: NCI-H23
Procedure, shortened: as §1

NCI-H1623 = tested on: NCI-H1623
Procedure, shortened: as §1

NCI-H1355 = tested on: NCI-H1355
Procedure, shortened: as §1

LCLC-97TM1 = tested on: LCLC-97TM1
Procedure, shortened: as §1

NCI-H322M = tested on: NCI-H322M
Procedure, shortened: as §1

NCI-H1703 = tested on: NCI-H1703
Procedure, shortened: as §1

NCI-H1299 = tested on: NCI-H1299
Procedure, shortened: as §1

NCI-H1648 = tested on: NCI-H1648
Procedure, shortened: as §1

Calu-6 = tested on: Calu-6
Procedure, shortened: as §1

IA-LM = tested on: IA-LM
Procedure, shortened: as §1

A549 = tested on: A549
Procedure, shortened: as §1

EBC-1 = tested on: EBC-1
Procedure, shortened: as §1

O=c1cc(N2CCOCC2)oc2c(-c3cccc4c3sc3ccccc34)cccc12 + CCNC(=O)c1noc(-c2cc(C(C)C)c(O)cc2O)c1-c1ccc(CN2CCOCC2)cc1 [Luminespib] (partner 0.01 µM)
relative viability (NCI-H596; first compound 0.01 µM): 1.05 | relative viability (NCI-H596; first compound 0.03162 µM): 0.917 | relative viability (NCI-H596; first compound 0.1 µM): 0.877 | relative viability (NCI-H596; first compound 0.3162 µM): 1.14 | relative viability (NCI-H596; first compound 1 µM): 1.01 | relative viability (UMC-11; first compound 0.01 µM): 0.971 | relative viability (UMC-11; first compound 0.03162 µM): 0.997 | relative viability (UMC-11; first compound 0.1 µM): 1.12 | relative viability (UMC-11; first compound 0.3162 µM): 0.986 | relative viability (UMC-11; first compound 1 µM): 0.982 | relative viability (NCI-H1993; first compound 0.01 µM): 0.585 | relative viability (NCI-H1993; first compound 0.03162 µM): 0.891 | relative viability (NCI-H1993; first compound 0.1 µM): 0.984 | relative viability (NCI-H1993; first compound 0.3162 µM): 0.697 | relative viability (NCI-H1993; first compound 1 µM): 0.813 | relative viability (NCI-H23; first compound 0.01 µM): 0.194 | relative viability (NCI-H23; first compound 0.03162 µM): 0.194 | relative viability (NCI-H23; first compound 0.3162 µM): 0.239 | relative viability (NCI-H23; first compound 1 µM): 0.206 | relative viability (NCI-H1623; first compound 0.01 µM): 0.383 | relative viability (NCI-H1623; first compound 0.03162 µM): 0.521 | relative viability (NCI-H1623; first compound 0.1 µM): 0.495 | relative viability (NCI-H1623; first compound 0.3162 µM): 0.475 | relative viability (NCI-H1623; first compound 1 µM): 0.409 | relative viability (NCI-H1355; first compound 0.01 µM): 0.815 | relative viability (NCI-H1355; first compound 0.03162 µM): 0.708 | relative viability (NCI-H1355; first compound 0.1 µM): 0.669 | relative viability (NCI-H1355; first compound 0.3162 µM): 0.728 | relative viability (NCI-H1355; first compound 1 µM): 0.688 | relative viability (LCLC-97TM1; first compound 0.01 µM): 0.621 | relative viability (LCLC-97TM1; first compound 0.03162 µM): 0.796 | relative viability (LCLC-97TM1; first compound 0.1 µM): 0.827 | relative viability (LCLC-97TM1; first compound 0.3162 µM): 0.759 | relative viability (LCLC-97TM1; first compound 1 µM): 0.728 | relative viability (NCI-H322M; first compound 0.01 µM): 0.901 | relative viability (NCI-H322M; first compound 0.03162 µM): 0.864 | relative viability (NCI-H322M; first compound 0.1 µM): 0.889 | relative viability (NCI-H322M; first compound 0.3162 µM): 0.839 | relative viability (NCI-H322M; first compound 1 µM): 0.756

O=c1cc(N2CCOCC2)oc2c(-c3cccc4c3sc3ccccc34)cccc12 + O=C(c1cc(Cc2n[nH]c(=O)c3ccccc23)ccc1F)N1CCN(C(=O)C2CC2)CC1 [Olaparib] (partner 8 µM)
relative viability (NCI-H596; first compound 0.01 µM): 0.675 | relative viability (NCI-H596; first compound 0.03162 µM): 0.628 | relative viability (NCI-H596; first compound 0.1 µM): 0.735 | relative viability (NCI-H596; first compound 0.3162 µM): 0.683 | relative viability (NCI-H596; first compound 1 µM): 0.694 | relative viability (NCI-H1703; first compound 0.01 µM): 0.548 | relative viability (NCI-H1703; first compound 0.03162 µM): 0.274 | relative viability (NCI-H1703; first compound 0.1 µM): 0.411 | relative viability (NCI-H1703; first compound 0.3162 µM): 0.446 | relative viability (NCI-H1703; first compound 1 µM): 0.511 | relative viability (UMC-11; first compound 0.01 µM): 0.359 | relative viability (UMC-11; first compound 0.03162 µM): 0.432 | relative viability (UMC-11; first compound 0.1 µM): 0.895 | relative viability (UMC-11; first compound 0.3162 µM): 0.699 | relative viability (UMC-11; first compound 1 µM): 0.404 | relative viability (NCI-H1299; first compound 0.01 µM): 0.961 | relative viability (NCI-H1299; first compound 0.03162 µM): 0.946 | relative viability (NCI-H1299; first compound 0.1 µM): 0.985 | relative viability (NCI-H1299; first compound 0.3162 µM): 0.974 | relative viability (NCI-H1299; first compound 1 µM): 0.917 | relative viability (NCI-H1648; first compound 0.03162 µM): 0.787 | relative viability (NCI-H1648; first compound 0.1 µM): 1.28 | relative viability (NCI-H1648; first compound 0.3162 µM): 0.936 | relative viability (NCI-H1648; first compound 1 µM): 1.17 | relative viability (Calu-6; first compound 0.01 µM): 0.614 | relative viability (Calu-6; first compound 0.03162 µM): 0.606 | relative viability (Calu-6; first compound 0.1 µM): 0.602 | relative viability (Calu-6; first compound 0.3162 µM): 0.484 | relative viability (Calu-6; first compound 1 µM): 0.657 | relative viability (NCI-H1993; first compound 0.01 µM): 1.08 | relative viability (NCI-H1993; first compound 0.03162 µM): 0.958 | relative viability (NCI-H1993; first compound 0.1 µM): 1.23 | relative viability (NCI-H1993; first compound 0.3162 µM): 1.04 | relative viability (NCI-H1993; first compound 1 µM): 0.984 | relative viability (IA-LM; first compound 0.01 µM): 0.883 | relative viability (IA-LM; first compound 0.03162 µM): 0.941 | relative viability (IA-LM; first compound 0.1 µM): 0.766 | relative viability (IA-LM; first compound 0.3162 µM): 0.793 | relative viability (IA-LM; first compound 1 µM): 0.769 | relative viability (NCI-H23; first compound 0.01 µM): 0.399 | relative viability (NCI-H23; first compound 0.03162 µM): 0.335 | relative viability (NCI-H23; first compound 0.3162 µM): 0.344 | relative viability (NCI-H23; first compound 1 µM): 0.343 | relative viability (NCI-H1355; first compound 0.01 µM): 0.712 | relative viability (NCI-H1355; first compound 0.03162 µM): 0.675 | relative viability (NCI-H1355; first compound 0.1 µM): 0.711 | relative viability (NCI-H1355; first compound 0.3162 µM): 0.709 | relative viability (NCI-H1355; first compound 1 µM): 0.743 | relative viability (A549; first compound 0.01 µM): 0.429 | relative viability (A549; first compound 0.03162 µM): 0.31 | relative viability (A549; first compound 0.1 µM): 0.295 | relative viability (A549; first compound 0.3162 µM): 0.356 | relative viability (A549; first compound 1 µM): 0.268 | relative viability (LCLC-97TM1; first compound 0.01 µM): 0.316 | relative viability (LCLC-97TM1; first compound 0.03162 µM): 0.374 | relative viability (LCLC-97TM1; first compound 0.1 µM): 0.502 | relative viability (LCLC-97TM1; first compound 0.3162 µM): 0.269 | relative viability (LCLC-97TM1; first compound 1 µM): 0.432 | relative viability (EBC-1; first compound 0.01 µM): 0.709 | relative viability (EBC-1; first compound 0.03162 µM): 0.667 | relative viability (EBC-1; first compound 0.1 µM): 0.757 | relative viability (EBC-1; first compound 0.3162 µM): 0.788 | relative viability (EBC-1; first compound 1 µM): 0.624 | relative viability (NCI-H322M; first compound 0.01 µM): 0.688 | relative viability (NCI-H322M; first compound 0.03162 µM): 0.827 | relative viability (NCI-H322M; first compound 0.3162 µM): 0.73 | relative viability (NCI-H322M; first compound 1 µM): 0.725

O=c1cc(-c2cccc3c2Sc2ccccc2S3)oc(N2CCOCC2)c1 + Cc1nc(Nc2ncc(C(=O)Nc3c(C)cccc3Cl)s2)cc(N2CCN(CCO)CC2)n1 [Dasatinib] (partner 0.075 µM)
relative viability (NCI-H596; first compound 0.08 µM): 0.662 | relative viability (NCI-H596; first compound 0.253 µM): 0.636 | relative viability (NCI-H596; first compound 0.8 µM): 0.541 | relative viability (NCI-H596; first compound 2.53 µM): 0.504 | relative viability (NCI-H596; first compound 8 µM): 0.594 | relative viability (UMC-11; first compound 0.08 µM): 0.537 | relative viability (UMC-11; first compound 0.253 µM): 0.591 | relative viability (UMC-11; first compound 0.8 µM): 0.535 | relative viability (UMC-11; first compound 2.53 µM): 0.433 | relative viability (UMC-11; first compound 8 µM): 0.752 | relative viability (NCI-H1993; first compound 0.08 µM): 0.519 | relative viability (NCI-H1993; first compound 0.253 µM): 0.581 | relative viability (NCI-H1993; first compound 0.8 µM): 0.544 | relative viability (NCI-H1993; first compound 2.53 µM): 0.525 | relative viability (NCI-H1993; first compound 8 µM): 0.56 | relative viability (NCI-H23; first compound 0.08 µM): 0.721 | relative viability (NCI-H23; first compound 0.253 µM): 0.716 | relative viability (NCI-H23; first compound 0.8 µM): 0.783 | relative viability (NCI-H23; first compound 2.53 µM): 0.702 | relative viability (NCI-H23; first compound 8 µM): 0.86 | relative viability (NCI-H1623; first compound 0.08 µM): 0.488 | relative viability (NCI-H1623; first compound 0.253 µM): 0.568 | relative viability (NCI-H1623; first compound 0.8 µM): 0.501 | relative viability (NCI-H1623; first compound 2.53 µM): 0.57 | relative viability (NCI-H1623; first compound 8 µM): 0.536 | relative viability (NCI-H1355; first compound 0.08 µM): 0.754 | relative viability (NCI-H1355; first compound 0.253 µM): 0.619 | relative viability (NCI-H1355; first compound 0.8 µM): 0.488 | relative viability (NCI-H1355; first compound 2.53 µM): 0.615 | relative viability (NCI-H1355; first compound 8 µM): 0.694 | relative viability (LCLC-97TM1; first compound 0.08 µM): 0.899 | relative viability (LCLC-97TM1; first compound 0.253 µM): 0.863 | relative viability (LCLC-97TM1; first compound 0.8 µM): 0.956 | relative viability (LCLC-97TM1; first compound 2.53 µM): 0.749 | relative viability (LCLC-97TM1; first compound 8 µM): 0.757 | relative viability (NCI-H322M; first compound 0.08 µM): 0.251 | relative viability (NCI-H322M; first compound 0.253 µM): 0.262 | relative viability (NCI-H322M; first compound 0.8 µM): 0.249 | relative viability (NCI-H322M; first compound 2.53 µM): 0.253 | relative viability (NCI-H322M; first compound 8 µM): 0.279
